Experiments:
Assay type in all cases: functional, cell-based
HT-29 = test: Cytotoxicity against human HT-29 cells
P388 = test: Cytotoxicity against mouse P388 cells
A549 = test: Cytotoxicity against human A549 cells
SK-MEL-28 = test: Cytotoxicity against human SK-MEL-28 cells

Measured: IC50

CC1(C)[C@@H](Cl)[C@@H](O)C[C@]2(C)C/C(=C\C=O)CC[C@@H]12
0.1 mg/L: HT-29 | P388 | A549 | SK-MEL-28

C=C(CC[C@@H]1C(=C)CC[C@H](Cl)C1(C)C)C(Cl)CN=C(Cl)Cl (some centres not stated)
0.1 mg/L: HT-29 | P388 | A549 | SK-MEL-28

CC1(C)[C@@H](Cl)[C@@H](O)C[C@]2(C)C/C(=C/C=O)CC[C@@H]12
0.1 mg/L: HT-29 | P388 | A549 | SK-MEL-28
